Experimental data published in publication PMC4988473, “Evaluation of Three Amorphous Drug Delivery Technologies to Improve the Oral Absorption of Flubendazole” (Journal of Pharmaceutical Sciences, 2016).
Values after ≈ are worked out from the molar mass of the structure shown. Read-outs that look alike come from different tables or passages of the source.

Assays:
[1] = Apparent permeability (Papp); assay type: in vitro ADME; details: not told, AB
Excerpt: (§1) Table 1 Physicochemical Properties of Flubendazole (FLU) | column: Value

[2] = Solubility in ambient conditions; assay type: physicochemical
[3] = pKa of flubendazole; assay type: physicochemical
[4] = tested on: Onchocerca volvulus; set-up: method as in PMID 6130195; details: after 12 months of follow-up; 5 weekly injections; cited from earlier work
[5] = LogP of flubendazole; assay type: physicochemical
Excerpt: as §1

- Papp at 10 μM [1]: 33.8 ×10⁻⁶ cm/s
- solubility ([2]; acetone, organic solvent or mixture, read-out: Solubility in acetone): 180 µg/mL (≈ 0.575 mM)
- solubility ([2]; dichloromethane, organic solvent or mixture, read-out: Solubility in dichloromethane): 140 µg/mL (≈ 0.447 mM)
- solubility ([2]; formic acid, organic solvent or mixture, read-out: Solubility in formic acid): 340000 µg/mL (≈ 1090 mM)
- solubility ([2]; methanol, organic solvent or mixture, read-out: Solubility in methanol): 110 µg/mL (≈ 0.351 mM)
- solubility ([2]; water, read-out: Solubility in water): 5 µg/mL (≈ 0.016 mM)
- pKa [3]: 9.6
- pKa ([3]; carbamate group): 3.6
- logP [5]: 3
SMILES: COC(=O)Nc1nc2cc(C(=O)c3ccc(F)cc3)ccc2[nH]1 [FLU, flubendazole]
- Activity against Onchocerca volvulus compared with diethylcarbamazine [4]: superior activity
